From ChEMBL document CHEMBL4390659, “Molecular hybridization approach for phenothiazine incorporated 1,2,3-triazole hybrids as promising antimicrobial agents: Design, synthesis, molecular docking and in silico ADME studies” (Eur J Med Chem, 2019)
Converted amounts (≈) assume the structure as drawn.

Tests used:
[1] = tested on: Mycobacterium tuberculosis; assay: Antibacterial activity against Mycobacterium tuberculosis H37Rv ATCC 27294 assessed as reduction in mycobacterial growth incubated for 5 days by MABA method; type: functional; conditions: H37Rv ATCC 27294, 120 h
Escherichia coli = assay: Antibacterial activity against Escherichia coli incubated for 24 hrs by agar dilution method; type: functional
Staphylococcus aureus = assay: Antibacterial activity against Staphylococcus aureus incubated for 24 hrs by agar dilution method; type: functional
Pseudomonas aeruginosa = assay: Antibacterial activity against Pseudomonas aeruginosa incubated for 24 hrs by agar dilution method; type: functional
[2] = tested on: Mycobacterium tuberculosis; assay: Potency index, ratio of pyrazinamide MIC to test compound MIC against Mycobacterium tuberculosis H37Rv ATCC 27294; type: functional
[3] = tested on: Mycobacterium tuberculosis; assay: Potency index, ratio of ciprofloxacin MIC to test compound MIC against Mycobacterium tuberculosis H37Rv ATCC 27294; type: functional
[4] = tested on: Mycobacterium tuberculosis; assay: Potency index, ratio of streptomycin MIC to test compound MIC against Mycobacterium tuberculosis H37Rv ATCC 27294; type: functional
Vero = assay: Cytotoxicity against African green monkey Vero cells assessed as reduction in cell viability incubated for 72 hrs by MTT assay; type: cell-based; conditions: Chlorocebus sabaeus
[5] = Cytotoxicity against African green monkey Vero cells assessed as cell growth inhibition at 6.25 ug/ml incubated for 72 hrs by MTT assay relative to control; type: cell-based; conditions: chlorocebus sabaeus, read-out: GI
[6] = Selectivity index, ratio of IC50 for African green monkey Vero cells to MIC for Mycobacterium tuberculosis H37Rv ATCC 27294; type: toxicity; conditions: read-out: Selectivity Index

Compound	MIC [1]	MIC (Escherichia coli) [mg/L]	MIC (Staphylococcus aureus) [mg/L]	MIC (Pseudomonas aeruginosa) [mg/L]	Ratio [2]	Ratio [3]	Ratio [4]	IC50 (Vero) [mg/L]	inhibition at 72 h, 6.25 ug/ml [5] [%]	selectivity ratio [6]
NC(=O)c1cnccn1 [PYRAZINAMIDE]	3.12 mg/L									
Cc1ccc(Cn2cc(CO/N=C/c3ccc4c(c3)Sc3ccccc3N4C)nn2)cc1	56.6 µM	50 (≈ 113 µM)	25 (≈ 56.6 µM)	100 (≈ 226 µM)						
Fc1ccccc1Cn1cc(CN2c3ccccc3Sc3ccccc32)nn1	1.6 mg/L	12.5 (≈ 32.2 µM)	12.5 (≈ 32.2 µM)	25 (≈ 64.4 µM)	2	4	4	924 (≈ 2380 µM)	3.33	278
N#Cc1ccc(Cn2cc(CN3c4ccccc4Sc4cc(/C=N/NC(=O)c5cccnc5)ccc43)nn2)cc1	2.94 µM	25 (≈ 46.1 µM)	12.5 (≈ 23 µM)	50 (≈ 92.1 µM)		4	4	1610 (≈ 2970 µM)	8.42	192
Fc1ccc(Cn2cc(CN3c4ccccc4Sc4ccccc43)nn2)cc1	3.12 mg/L	12.5 (≈ 32.2 µM)	12.5 (≈ 32.2 µM)	12.5 (≈ 32.2 µM)				3800 (≈ 9790 µM)	8.34	456
N#Cc1ccc(Cn2cc(CN3c4ccc(/C=N/NC(=O)c5ccncc5)cc4Sc4ccc(C(F)(F)F)cc43)nn2)cc1	2.62 µM	50 (≈ 81.9 µM)	50 (≈ 81.9 µM)	100 (≈ 164 µM)	2	4	4	1480 (≈ 2420 µM)	7.14	207
CN1c2ccccc2Sc2cc(/C=N/OCc3cn(Cc4ccccc4)nn3)ccc21	58.4 µM	100 (≈ 234 µM)	50 (≈ 117 µM)	50 (≈ 117 µM)						
N#Cc1ccc(Cn2cc(CN3c4ccc(/C=N/NC(=O)c5ccccc5)cc4Sc4ccc(C(F)(F)F)cc43)nn2)cc1	2.62 µM	50 (≈ 82 µM)	50 (≈ 82 µM)	50 (≈ 82 µM)		4	4	552 (≈ 905 µM)	12.3	44.7
N#Cc1ccc(Cn2cc(CN3c4ccc(/C=N/NC(=O)c5ccc([N+](=O)[O-])cc5)cc4Sc4ccc(C(F)(F)F)cc43)nn2)cc1	2.44 µM	50 (≈ 76.4 µM)	25 (≈ 38.2 µM)	50 (≈ 76.4 µM)	2	4	4	1130 (≈ 1720 µM)	8.91	126
Cc1ccc(Cn2cc(COCc3ccc4c(c3)Sc3ccccc3N4C)nn2)cc1	58.3 µM	100 (≈ 233 µM)	50 (≈ 117 µM)	100 (≈ 233 µM)						
N#Cc1ccc(Cn2cc(CN3c4ccc(/C=N/NC(=O)c5ccc(F)cc5)cc4Sc4ccc(C(F)(F)F)cc43)nn2)cc1	2.55 µM	12.5 (≈ 19.9 µM)	6.25 (≈ 9.96 µM)	12.5 (≈ 19.9 µM)	2	4	4	647 (≈ 1030 µM)	8.42	76.8
N#Cc1ccc(Cn2cc(CN3c4ccccc4Sc4cc(/C=N/NC(=O)c5cnccn5)ccc43)nn2)cc1	2.94 µM	50 (≈ 92 µM)	50 (≈ 92 µM)	100 (≈ 184 µM)	2	4	4	2400 (≈ 4420 µM)	12.3	195
COc1ccc(Cn2cc(COCc3ccc4c(c3)Sc3ccccc3N4C)nn2)cc1	56.2 µM	100 (≈ 225 µM)	50 (≈ 112 µM)	50 (≈ 112 µM)						
Cc1ccc(C(=O)N/N=C/c2ccc3c(c2)Sc2ccccc2N3Cc2cn(Cc3ccc(C#N)cc3)nn2)cc1	2.87 µM	50 (≈ 90 µM)	25 (≈ 45 µM)	100 (≈ 180 µM)		4	4	456 (≈ 821 µM)	10.6	42.9
COc1ccc(Cn2cc(CO/N=C/c3ccc4c(c3)Sc3ccccc3N4C)nn2)cc1	54.6 µM	100 (≈ 219 µM)	50 (≈ 109 µM)	100 (≈ 219 µM)						
O=[N+]([O-])c1ccc(Cn2cc(CN3c4ccccc4Sc4ccccc43)nn2)cc1	1.6 mg/L	50 (≈ 120 µM)	50 (≈ 120 µM)	100 (≈ 241 µM)	2	4	4	484 (≈ 1160 µM)	11.4	42.5
N#Cc1ccc(Cn2cc(CN3c4ccccc4Sc4cc(/C=N/NC(=O)c5ccncc5)ccc43)nn2)cc1	2.94 µM	25 (≈ 46.1 µM)	12.5 (≈ 23 µM)	25 (≈ 46.1 µM)	2	4	4	1300 (≈ 2390 µM)	5.13	253
COc1ccc(Cn2cc(CN3c4ccccc4Sc4ccccc43)nn2)cc1	1.6 mg/L	25 (≈ 62.4 µM)	25 (≈ 62.4 µM)	50 (≈ 125 µM)	2	4	4	6040 (≈ 15100 µM)	7.57	797
CN1c2ccccc2Sc2cc(COCc3cn(Cc4ccc(F)cc4)nn3)ccc21	28.9 µM	25 (≈ 57.8 µM)	25 (≈ 57.8 µM)	50 (≈ 116 µM)						
